Patent US20230295109A1, “PYRIDINONE COMPOUNDS FOR THE TREATMENT OF AUTOIMMUNE DISEASE” (F. Hoffmann-La Roche AG, priority 2020, published 2023)

Assay: Parallel Artificial Membrane Permeability Assay (PAMPA)
Format: in vitro ADME
Details: for Membrane Retention / Papp at 4 h: PAMPA; for Membrane Retention: pH 7.40, 4 hours; for Papp at 4 h: pH 7.4, pH 7.40, room temperature, read-out: PAMPA Pe; for PAMPA category: class from Pe and membrane retention
Experimental: PAMPA (Parallel Artificial Membrane Permeability Assay) is a first-line permeability screen for drug candidates. This assay mimics the transcellular absorption conditions using an artificial phospholipid membrane and generates a permeability value that can be used for compound ranking and optimization as well as input parameters for in silico models to predict intestinal absorption.
Permeation experiments are carried out in hydrophobic PVDF 96-well microtiter filter plates (MultiScreen Filter Plate, Millipore, #MAIPN4550). Each well is coated with PVDF membrane, which is prepared with 5 µL Dodecane (Sigma, D221104) that contains 1% lecithin (Sigma, P3556-1G).
The typical PAMPA experimental protocol is as follows: The donor plate is placed on a Teflon acceptor plate that has been pre-filled with 150 µL of 100 mM PBS buffer (2.6 g KH2PO4 and 18.5 g K2HPO4.3H2O are dissolved in about 1000 mL of ultra-pure water and mixed thoroughly. The pH is adjusted to 7.40 ± 0.05, using either 1 M sodium hydroxide or 1 M hydrochloric acid.) containing 5% DMSO. The filter on the bottom of each acceptor well is filled with 300 µL of 100 mM PBS buffer (2.6 g KH2PO4 and 18.5 g K2HPO4.3H2O are dissolved in about 1000 mL of ultra-pure water, mixed thoroughly. The pH was adjusted to 7.40 ± 0.05, using either 1 M sodium hydroxide or 1 M hydrochloric acid.). The resulting sandwich is incubated at room temperature under constant shaking (300 rpm) for 4 hours. The sandwich is then disassembled. Before incubation, spike 20 µL dosing solution and mix with 250 µL PBS and 130 µL quench solution (acetonitrile) as T0 sample. After incubation, collect 270 µL solutions from acceptor chamber, followed by the addition of 130 µL acetonitrile. Collect 20 µL solution from donor chamber and add 250 µL PBS and 130 µL acetonitrile. The concentration of compound in all samples are determined by LC-MS/MS and the equations for determining the permeability (Pe, 10^-6 cm/s ) are as follows.
VD is the volume of the donor well; VR is the volume of the acceptor well; Area is the active surface area of membrane; Time is the incubation time (14,400 s in this assay); CR and CD are the concentrations of compound in acceptor and donor solutions, respectively, at the completion of the assay; C0 is the concentration of compound in donor solution before incubation.
The main readout of the PAMPA assay is the permeability value Pe expressed in 10^-6 cm/s. Secondary readouts determined are the amounts of compound in the donor and acceptor compartments as well as compound retention in the membrane. Depending on the permeation rate and the membrane retention, compounds are classified as “low” (Pe < 0.2 and membrane retention <20%) or “medium & high” (Pe >= 0.2; or Pe < 0.2 and membrane retention >= 20%). Each sample is measured in triplicate; the standard deviation is determined for the permeation constant Pe.

Membrane Retention [%]	Papp at 4 h [×10⁻⁶ cm/s]	SMILES	PAMPA category
-11.520	0.57	CCc1nc(N2CCN(Cc3cnc(N4CC5(CNCCO5)C4)nc3)CC2)ccc1-c1cc(C)c(=O)n(C)c1 [Example 1, 5-[2-ethyl-6-[4-[[2-(5-oxa-2,8-diazaspiro[3.5]nonan-2-yl)pyrimidin-5-yl]methyl]piperazin-1-yl]-3-pyridyl]-1,3-dimethyl-pyridin-2-one]	medium & high (“medium & high” (Pe >= 0.2; or Pe < 0.2 and membrane retention >= 20%))
10.600	0.49	CCc1nc(N2CCN(Cc3ccc(N4CC5(CNCCO5)C4)nc3)CC2)ccc1-c1cc(C)c(=O)n(C)c1 [Example 2, 5-[2-ethyl-6-[4-[[6-(5-oxa-2,8-diazaspiro[3.5]nonan-2-yl)-3 pyridyl]methyl]piperazin-1-yl]-3-pyridyl]-1,3-dimethyl-pyridin-2-one]	medium & high (“medium & high” (Pe >= 0.2; or Pe < 0.2 and membrane retention >= 20%))
-1.260	0.53	CCc1nc(N2CCN(Cc3cnc(N4CC(C)(N)C4)nc3)CC2)ccc1-c1cc(C)c(=O)n(C)c1 [Example 3, 5-[6-[4-[[2-(3-amino-3-methyl-azetidin-1-yl)pyrimidin-5-yl]methyl]piperazin-1-yl]-2-ethyl-3-pyridyl]-1,3-dimethyl-pyridin-2-one]	medium & high (“medium & high” (Pe >= 0.2; or Pe < 0.2 and membrane retention >= 20%))
15.690	0.75	CCc1nc(N2CCN(Cc3cnc(N4CCOC[C@@H](N)C4)nc3)CC2)ccc1-c1cc(C)c(=O)n(C)c1 [Example 4, 5-[6-[4-[[2-[(6S)-6-amino-1,4-oxazepan-4-yl]pyrimidin-5-yl]methyl]piperazin-1-yl]-2-ethyl-3-pyridyl]-1,3-dimethyl-pyridin-2-one]	medium & high (“medium & high” (Pe >= 0.2; or Pe < 0.2 and membrane retention >= 20%))
18.250	1.5	CCc1nc(N2CCN(Cc3ccc(N4CCNCC4)cc3)CC2)ccc1-c1cc(C)c(=O)n(C)c1 [Example 5, 5-[2-ethyl-6-[4-[(4-piperazin-1-ylphenyl)methyl]piperazin-1-yl]-3-pyridyl]-1,3-dimethyl-pyridin-2-one]	medium & high (“medium & high” (Pe >= 0.2; or Pe < 0.2 and membrane retention >= 20%))
19.190	0.65	Cc1cc(-c2ccc(N3CCN(Cc4cnc(N5CC6(CNCCO6)C5)nc4)CC3)nc2C(C)C)cn(C)c1=O [Example 6, 5-[2-isopropyl-6-[4-[[2-(5-oxa-2,8-diazaspiro[3.5]nonan-2-yl)pyrimidin-5-yl]methyl]piperazin-1-yl]-3-pyridyl]-1,3-dimethyl-pyridin-2-one]	medium & high (“medium & high” (Pe >= 0.2; or Pe < 0.2 and membrane retention >= 20%))
2.530	0.74	Cc1cc(-c2ccc(N3CCN(Cc4ccc(N5CCNCC5)cn4)CC3)nc2C(C)C)cn(C)c1=O [Example 7, 5-[2-isopropyl-6-[4-[(5-piperazin-1-yl-2-pyridyl)methyl]piperazin-1-yl]-3-pyridyl]-1,3-dimethyl-pyridin-2-one]	medium & high (“medium & high” (Pe >= 0.2; or Pe < 0.2 and membrane retention >= 20%))
21.370	0.95	Cc1cc(-c2ccc(N3CCN(Cc4cnc(N5CCNCC5)cn4)CC3)nc2C(C)C)cn(C)c1=O [Example 8, 5-[2-isopropyl-6-[4-[(5-piperazin-1-ylpyrazin-2-yl)methyl]piperazin-1-yl]-3-pyridyl]-1,3-dimethyl-pyridin-2-one]	medium & high (“medium & high” (Pe >= 0.2; or Pe < 0.2 and membrane retention >= 20%))
